In US10561638B2, “Methods for treating dependence” (Biotie Therapies, Inc., priority 2007, dated 2020):
Entries after “also recorded” stand apart in the source; their conditions may differ.

Columns and labels:
[1] = test system: short-term or working memory in rats; assay: Delayed-matching-to-position (DMTP) test; type: in vivo, Sprague Dawley rats
Procedure: In the present DMTP study, rats were trained to remember the position of a lever across a scheduled delay of either 0, 8, 16 or 32 s in order to earn food reward. […] Another group of rats received only vehicle treatment throughout the experiment. […] The dependent measures in the present study included percentage of correct choices, the latency to make choice responses and the number of trials which the animals were able to complete during the 70 min test sessions. Changes in the former measure may indicate changes in memory and/or attentional function whereas changes in the latter two measures may be indicative of other non-cognitive effects of the drugs. Matching to position training began next. This and all subsequent training was conducted with the partitions fitted into the operant boxes. The sessions were initially 50 minutes long. Rats were placed in the operant box and the session began when the houselight was illuminated. Following a 30 s intertrial interval (ITI), one of the two levers (the sample lever) was inserted into the chamber. The lever remained inserted into the chamber until a lever-press response occurred. […] As soon as the magazine flap was pressed the magazine light was extinguished and both levers were inserted. […] The magazine light remained on until the flap was pressed. […] A 30 s ITI was initiated before the commencement of a new trial. The lever inserted as the sample lever was semi-randomly determined such that the right and lefthand levers were presented as the sample lever 8 times in a block of 16 trials. Following 24 sessions, the animals were performing the matching to position task with a high degree of accuracy. On Session 25 a variable delay interval was interposed between the depression of the sample lever and presentation of the levers on the choice trial. After a response to the sample lever, the choice levers were inserted following the first flap press occurring after either a 0 s (immediate), 4, 8 or 16 s delay. The order of the four types of trials (0, 4, 8 or 16 s delay) was semi-randomly determined with the constraint that in a 16 trial block, each delay occurred 4 times; twice on a left trial and twice on a right trial. […] The same trial was reinstated following the end of the ITI. From Session 25 onward the time-out period following incorrect choices was omitted and the session length was increased to 70 minutes. […] Due to poor performance at the 64 s delay, however, this delay was not used in any further sessions. On Session 59, delays of 0, 8, 16 and 32 s were used. These delays were used in all subsequent sessions. Only 51 of the 56 rats completed more than 24 trials (correction plus non-correction) during Session 59. These rats were selected and semi-randomly assigned to the following 7 groups such that the groups were matched on performance (percent correct, response latency and number of trials completed): […] Thus, the drug treatments administered to the seven groups during the 11 consecutive days of the present experiment were: The data collected and analyzed in the present DMTP study include 1) the percentage of correct responses; 2) the latency between performance of a response to the sample lever and the performance of the choice response and 3) the total number of correction and non-correction trials completed. The former two dependent measures were collected for the non-correction trials only. […] Two-way analysis of variance (ANOVA) with drug treatment as the between-subjects factor and delay (0, 8, 16 or 32 s) as the within-subjects factor was used to analyze percentage of correct choices and response latency. These analyses were conducted separately for each block of data. Significant interactions were followed by a one-way ANOVA which was conducted at each delay. A significant main effect from a one-way ANOVA was followed by a two-tailed Dunnett's t-test. One-way ANOVA followed by a post hoc Dunnett's test, when appropriate, was used to analyze the mean number of trials completed. […]

[2] = Pilot observation studies in rats, acute and repeated oral administration
Procedure: Similarly, in a separate study, physostigmine (1, 3, 10 or 30 mg/kg p.o.) or vehicle were administered acutely to groups of 8 rats.
In pilot studies of repeated administration, nepicastat (100 mg/kg p.o.) or vehicle was administered twice daily (06:00 and 18:00 h) for 10 days (once on day 11) to groups of 8 rats. The weights of the animals were monitored throughout the study and, on day 5, the animals were observed ‘blind’ by an independent observer in order to assess any overt behavioural/physiological effects following repeated administration. In a separate study, groups of 8 rats received vehicle or physostigmine (0.3, 1, 3 or 10 mg/kg p.o.) using the same dosing schedule. The weights of the animals were monitored throughout the study.

[3] = test system: MPTP-lesioned squirrel monkey; assay: MPTP-lesioned squirrel monkey Parkinsonian model; type: in vivo, squirrel monkeys
Procedure: Twenty four squirrel monkeys, fourteen females and ten males were used in a Parkinsonian model. The twenty-four animals were randomly assigned to one of four treatment groups, with 6 animals per group. The groups consisted of the following: Group A (6 animals) received placebo (water) treatment; Group B (5 animals) received drug nepicastat at 1 mg/kg/day (0.5 mg/kg twice daily); Group C (6 animals) received 4 mg/kg/day (2 mg/kg twice daily); and Group D (6 animals) received 10 mg/kg/day (5 mg/kg twice daily). In Group B, one animal died acutely following MPTP-lesioning, and was not replaced.
Prior to lesioning, animals were subjected to quantitative assessment of spontaneous motor activity using an infrared activity monitor (IRAM) cage. All recording sessions were 60 minutes in length and were carried out for 10 sessions over a period of 2 weeks. The behavior of animals was also assessed by 1 to 3 clinical raters using a parkinsonian clinical rating scale (CRS) once per day (12 noon to 1 pm) for 3 to 5 consecutive days. […] Both the activity monitoring (IRAM) and clinical rating assessments established the mean base-line activity of each animal.
Animals were lesioned by the administration of MPTP at a concentration of 2.0 mg/kg (free-base) via subcutaneous injection to achieve a parkinsonian state. A post-MPTP lesioning behavioral assessment was carried out 2 to 4 weeks after the last MPTP-lesioning. Locomotor activity was monitored by IRAM in 60-minute sessions for 3 to 5 days. Clinical behavior (CAS) was assessed by one to three individuals rating over a period of 3 to 5 days.
Animals were tested for response to L-Dopa and the efficacy of drug nepicastat. Testing was carried out 4 to 12 weeks after the last MPTP dose. L-Dopa was administered at a concentration of either 2.5, 5, or 7.5 mg/kg by oral gavage twice daily (at 10 am and 2 pm) for 7 consecutive days. Behavior was determined by IRAM and CRS. Clinical rating was carried out 60 to 90 minutes following the 10 am morning dose on the last 4 days of treatment. Raters (one to three individuals) were blinded to the different treatment groups. IRAM assessment were preformed for 90 minutes immediately following drug administration at 2 pm on the last 2 to 5 days of drug treatment. There was a minimum 2 day washout period between each treatment dose.
Nepicastat or water (as placebo) was administered for 12 days following a minimum 2 day washout after L-Dopa dosing. Drug was administered twice daily at 10 am and 2 pm by oral gavage. Behavior was rated by IRAM and CRS. The CRS was conducted in the morning, 60 to 90 minutes after the 10 am dose of nepicastat on the last 5 days of drug treatment. Raters (one to three individuals) were blinded to the different treatment groups. IRAM assessments were preformed for 90 minutes immediately following drug administration at 2 pm on the last 5 days of drug treatment.
Eight parkinsonian features were rated in each animal and the total score was derived from the sum of these eight features. For each animal, a single clinical rating score was obtained for each drug dose by averaging the clinical rating scores of all raters (one to three) conducted over the consecutive multiple dosing (with the same dose) days. This average CRS was used for statistical analysis. A lower score was considered a less parkinsonian behavioral state.
Statistical analysis consisted of: (1) comparisons between the average CRS of placebo to nepicastat at 1, 4, and 10 mg/kg/day using the Kruskal-Wallis (non-parametric analysis of variance). This comparison was repeated using the average CRS for each experimental drug concentration corrected by the final post-MPTP ratings for each animal. The corrected clinical scores are clinical scores of experimental drug at each concentration as a ratio of post-MPTP clinical scores. […]

[4] = in vivo
Procedure: The pharmacokinetics of nepicastat after a single 40 mg dose was compared in men and women.

serum T3 and T4 levels = assay: Thyroid function (serum T3, T4) in iodine-deficient rats; type: in vivo, Sprague-Dawley rats; settings: for reduction in serum T3 / reduction in serum T4: 1 mg/kg po b.i.d.; for effect on serum T3 and T4 levels: methimazole 1 mg/kg b.i.d. (2 mg/kg/d)
Procedure: Since the heterocyclic portion of nepicastat is structurally similar to methimazole, a known potent suppressor of mammalian thyroid function, the effects of nepicastat on thyroid function were evaluated at doses of 2.0 and 6.2 mg/kg, po, b.i.d in iodine-deficient Sprague-Dawley rats (n=9-12) for 10 days.
Male Sprague-Dawley rats, weighing 180-200 grams, were fed an iodine deficient diet (Purina, 5891C, Lot 1478, 0.066±0.042 mg iodine/kg sample) ad libitum 14 days prior to treatment. Animals were weighed and randomly assigned to one of the following treatment groups (n=12 per group): nepicastat at 2.0 mg/kg, nepicastat at 6.2 mg/kg, Methimazole at 1 mg/kg, or vehicle at 1 ml/kg. Each group of rats was dosed orally in the evening and the following morning, approximately 12 hours apart, for 10 consecutive days.
Orbital blood samples were taken at day −3, 0, 3, 7, and 9 (day 0 was the first day of dosing). Serum samples were analyzed for T3 and T4 levels using a radioimmunoassay.
To statistically evaluate changes in T3 and T4 levels, a change from baseline was calculated from the day −3 time point. A non-parametric two-way within subject analysis of variance (ANOVA) was conducted. Also a one-way ANOVA was performed to detect if a significant difference from control occurred. Pairwise analyses between controls and each treatment group were carried out using Fisher's LSD strategy to control the experiment-wise error rate. For statistical analysis of catecholamine levels, a one-way ANOVA with factor DOSE was performed. Pairwise analyses between treated and controls at each dose were carried out using Fisher's LSD strategy to control the experiment-wise error rate.

CNC(=O)Oc1ccc2c(c1)[C@]1(C)CCN(C)[C@@H]1N2C [physostigmine, Physostigmine sulphate, reference compound]
all dependent measures ([1]; Block 2): no significant effects on any of the dependent measures
choice accuracy ([1]; Block 3, physostigmine 1.0 mg/kg b.i.d.): delay-independent impairment in choice accuracy
response latency, number of trials completed ([1]; Block 5): did not significantly affect
improvement of DMTP performance ([1]; administered alone, 10 days): did not improve performance
reversal of the effects of scopolamine ([1]; day 11 scopolamine test): did not appear to reverse the effects of scopolamine
convulsions on repeated administration ([2]; physostigmine 3 mg/kg p.o.): 2 of 8 animals convulsed on day 5
mortality on repeated administration ([2]; physostigmine 10 mg/kg p.o.): 3 of 8 animals were found dead on day 2
acute toxicity ([2]; physostigmine 30 mg/kg p.o.): Signs of toxicity were observed
effects of repeated administration ([2]; physostigmine 0.3 or 1 mg/kg): no effects
acute doses inducing overt behavioural effects ([2]; physostigmine p.o.): ≥ 3 mg/kg

N[C@@H](Cc1ccc(O)c(O)c1)C(=O)O [L-Dopa, reference compound]
parkinsonian clinical rating vs post-MPTP ([3]; L-Dopa 2.5 mg/kg): No groups of animals demonstrated significant improvement; also recorded: no significant effect
parkinsonian clinical rating vs post-MPTP (pre-treatment) ([3]; L-Dopa 5 and 7.5 mg/kg, except Group C at 7.5 and Group B at 5 mg/kg): significant improvement; also recorded: significant effect

CC(=O)NCc1c[nH]c(=S)n1[C@H]1CCc2c(F)cc(F)cc2C1 [N-acetyl metabolite of nepicastat]
Cmax and AUC of the N-acetyl metabolite, slow vs fast acetylators [4]: much lower in the slow acetylators

Cn1cc[nH]c1=S [methimazole]
reduction in serum T3 (serum T3 and T4 levels; day 3, 4 h post-dose): 31%
reduction in serum T4 (serum T3 and T4 levels; day 3, 4 h post-dose): 46%
reduction in serum T3 (serum T3 and T4 levels; day 7, 4 h post-dose): 42%
reduction in serum T4 (serum T3 and T4 levels; day 7, 4 h post-dose): 58%
reduction in serum T3 (serum T3 and T4 levels; day 9, 4 h post-dose): 44%
effect on serum T3 and T4 levels (serum T3 and T4 levels): significantly reduced
effect on serum T3 and T4 levels (serum T3 and T4 levels; listed as Methimazole): significantly (p<0.05) lowered
T4 levels vs vehicle (serum T3 and T4 levels; methimazole 1.0 mg/kg, day nine): marginally (p<0.10) lower
